Laboratory results published in patent publication US20220160669A1, “PARENTERAL NUTRITION FORMULATION” (BAXTER INTERNATIONAL INC., priority 2020, published 2022).

Legend:
[1] = test system: anti-inflammatory cytokines I1-8, I1-10; test: Ileal cytokine concentration, anti-inflammatory; type: in vivo, pig; set-up: key: +++ indicate P < 0.01; ++ indicates P < 0.05; + indicates positive trends; = denotes no significant P value; − denotes negative trends; settings: compared to standard PN (s-PN)
Source text: (§1) Neonatal Yorkshire/Landrace cross bred piglets (n=72; six at a time from the same litter, repeating 12 times) were obtained from Oak Hill Genetics (Ewing, Ill.) after 48-hour sow reared for colostrum consumption and iron supplementation.
(§2) The influence of the respective supplements on inflammation was investigated by determining Il-6, Il-1beta, TNF-alpha and Il-10 serum levels in the intervention groups compared to EN and PN according to Milo et al., Effects of Short-Chain Fatty Acid-Supplemented Total Parenteral Nutrition on Intestinal Pro-Inflammatory Cytokine Abundance. Digestive Diseases and Sciences 2002; 47:2049-2055. Jejunal and ileal samples were homogenized in double-distilled water, and the Bradford protein assay (Biorad, Hercules, Calif., USA) was performed on homogenate and plasma samples. Protein (30 μg) from each sample was denatured by boiling, and proteins were separated by size using 12.5% sodium dodecyl sulfate polyacrylamide gel electrophoresis. Separated proteins were transferred to polyvinylidene difluoride membranes (Biorad) using a semidry transfer apparatus (Biorad). Western blot analysis for TNF-alpha, IL-1beta, Il-10 and IL-6 was performed using porcine-specific polyclonal antibodies (Endogen, Woburn, Mass., USA). A mouse anti-pig monoclonal TNF-alpha antibody was used to detect TNF-alpha ([…]). Rabbit anti-pig polyclonal antibodies specific for IL-1beta and IL-6 were used to detect IL-1beta (17,500 kDa), Il-10 (18,600 kDa) and IL-6 (26,000 kDa). Membranes were developed using the Opti-4CN kit (Biorad) and photographed using the FOTO/Analyst Image Analysis System (Fotodyne, Inc., Hartland, Wis., USA). Densitometry of TNF-alpha, IL-1beta, IL-6, and Il-10 was performed using Collage Image Analysis Software 4.0 (Fotodyne, Inc.). Results are shown in FIG. 15 (Il-6), FIG. 16 (Illbeta), FIG. 17 (TNF-alpha) and FIG. 18 (Il-10).

[2] = test system: pro-inflammatory cytokines I1-1β, I1-6, TNF-α; test: Jejunal cytokine concentration, pro-inflammatory; type: in vivo, pig; settings: compared to standard PN (s-PN)
Source text: as §1, §2

[3] = test system: pro-inflammatory cytokines I1-1β, I1-6, TNF-α; test: Ileal cytokine concentration, pro-inflammatory; type: in vivo, pig; set-up: key: +++ indicate P < 0.01; ++ indicates P < 0.05; + indicates positive trends; = denotes no significant P value; − denotes negative trends; settings: compared to standard PN (s-PN)
Source text: as §1, §2

[4] = test system: anti-inflammatory cytokines I1-10; test: Jejunal cytokine concentration, anti-inflammatory; type: in vivo, pig; set-up: key: +++ indicate P < 0.01; ++ indicates P < 0.05; + indicates positive trends; = denotes no significant P value; − denotes negative trends; settings: compared to standard PN (s-PN)
Source text: as §1, §2

[5] = test system: TNF-alpha; test: Serum cytokine quantification, TNF-alpha; type: in vivo, pig; settings: 10 mmol/L TPN (Group C)
Source text: as §1
as §2, with “Rabbit anti-pig polyclonal antibodies specific for IL-1beta and IL-6 were used to detect IL-1beta (17,500 kDa), Il-10 (18,600 kDa) and IL-6 (26,000 kDa). Membranes were developed using the Opti-4CN kit (Biorad) and photographed using the FOTO/Analyst Image Analysis System (Fotodyne, Inc., Hartland, Wis., USA). Densitometry of TNF-alpha, IL-1beta, IL-6, and Il-10 was performed using Collage Image Analysis Software 4.0 (Fotodyne, Inc.). Results are shown in FIG. 15 (Il-6), FIG. 16 (Illbeta), FIG. 17 (TNF-alpha) and FIG. 18 (Il-10).” left out

[6] = cited from earlier work
[7] = test system: Il-1beta; test: Serum cytokine quantification, Il-1beta; type: in vivo, pig; settings: 10 mmol/L TPN (Group C)
Source text: as §1
as §2, with “Rabbit anti-pig polyclonal antibodies specific for IL-1beta and IL-6 were used to detect IL-1beta (17,500 kDa), Il-10 (18,600 kDa) and IL-6 (26,000 kDa). Membranes were developed using the Opti-4CN kit (Biorad) and photographed using the FOTO/Analyst Image Analysis System (Fotodyne, Inc., Hartland, Wis., USA). Densitometry of TNF-alpha, IL-1beta, IL-6, and Il-10 was performed using Collage Image Analysis Software 4.0 (Fotodyne, Inc.). Results are shown in FIG. 15 (Il-6), FIG. 16 (Illbeta), FIG. 17 (TNF-alpha) and FIG. 18 (Il-10).” left out

[8] = test system: metastatic colorectal cancer patients; settings: aqueous solution, pH 7.7, phase I clinical trial; cited from earlier work
[9] = test system: Il-6; test: Serum cytokine quantification, Il-6; type: in vivo, pig; settings: 10 mmol/L TPN (Group C)
Source text: as §1
as §2, with “Rabbit anti-pig polyclonal antibodies specific for IL-1beta and IL-6 were used to detect IL-1beta (17,500 kDa), Il-10 (18,600 kDa) and IL-6 (26,000 kDa). Membranes were developed using the Opti-4CN kit (Biorad) and photographed using the FOTO/Analyst Image Analysis System (Fotodyne, Inc., Hartland, Wis., USA). Densitometry of TNF-alpha, IL-1beta, IL-6, and Il-10 was performed using Collage Image Analysis Software 4.0 (Fotodyne, Inc.). Results are shown in FIG. 15 (Il-6), FIG. 16 (Illbeta), FIG. 17 (TNF-alpha) and FIG. 18 (Il-10).” left out

Molecule | Ileal Cytokine Concentration (more anti-inflammatory cytokines I1-8, I1-10) ([1]; 10 mmol/L) | Ileal Cytokine Concentration (more anti-inflammatory cytokines I1-8, I1-10) ([1]; 30 mmol/L) | Jejunal Cytokine Concentration (less pro-inflammatory cytokines I1-1β, I1-6, TNF-α) ([2]; 10 mmol/L) | Jejunal Cytokine Concentration (less pro-inflammatory cytokines I1-1β, I1-6, TNF-α) ([2]; 30 mmol/L) | Ileal Cytokine Concentration (less pro-inflammatory cytokines I1-1β, I1-6, TNF-α) ([3]; 10 mmol/L) | Ileal Cytokine Concentration (less pro-inflammatory cytokines I1-1β, I1-6, TNF-α) ([3]; 30 mmol/L) | Jejunal Cytokine Concentration (more anti-inflammatory cytokines I1-8, I1-10) ([4]; 10 mmol/L) | Jejunal Cytokine Concentration (more anti-inflammatory cytokines I1-8, I1-10) ([4]; 30 mmol/L) | serum levels of TNF-alpha (FIG. 17) [5] | clearance rate ([6]; human, in vivo) [mL/min/kg] | steady state concentration ([6]; infusion rate of 2000 mg/kg/day, patients with hemoglobinopathy) [mg/L] | serum levels of Il1-beta (FIG. 16) [7] | tolerated dose [8] [g/kg/day] | serum levels of Il-6 (FIG. 15) [9]
CCCC(=O)OCC(COC(=O)CCC)OC(=O)CCC [Tributyrin] | − | + | ++ (++ indicates P < 0.05) | ++ (++ indicates P < 0.05) | = | + | = | + |  |  |  |  |  | 
L-arginine, butanoate (3:4) [Arginine butyrate] | +^4 |  | +++ (+++ indicate P < 0.01) |  | ++ (++ indicates P < 0.05) |  | ++ (++ indicates P < 0.05) |  | lower than in the other Study (or intervention) Groups | 93.6 ± 31.9 | 15.7 ± 4.8 | significantly lower than in the standard PN group | 3 | significantly lower than in the standard PN group
